ChEMBL document CHEMBL3351970 (Bioorg Med Chem Lett, 2014)
pKi: −log10 of the molar value. One block for each compound: values may come before it.

Key:
[1] = target: T1, Transient receptor potential cation channel subfamily V member 1 (Homo sapiens, UniProt Q8NER1); experiment: Antagonist activity against human TRPV1 expressed in CHO cells assessed as inhibition of capsaicin-induced channel activation by FLIPR assay; type: cell-based
Mus musculus [2] = experiment: Inhibition of capsaicin-induced hypothermia in mouse at 0.1 mg/kg, po administered 15 mins before capsaicin challenge and measured 30 mins post capsaicin injection; type: functional
Mus musculus [3] = experiment: Anti-allodynic activity in mouse model of chronic constriction injury-induced neuropathic pain assessed as inhibition of pain response at 0.001 mg/kg, po; type: functional
[4] = target: T1, Transient receptor potential cation channel subfamily V member 1; experiment: Antagonist activity against human TRPV1 expressed in CHO cells assessed as inhibition of NADA-induced channel activation by FLIPR assay; type: cell-based
Mus musculus [5] = experiment: Inhibition of capsaicin-induced hypothermia in mouse at 0.3 mg/kg, po administered 15 mins before capsaicin challenge and measured 30 mins post capsaicin injection; type: functional
Mus musculus [6] = experiment: Inhibition of capsaicin-induced hypothermia in mouse at 10 mg/kg, po administered 15 mins before capsaicin challenge and measured 30 mins post capsaicin injection; type: functional
Mus musculus [7] = experiment: Anti-allodynic activity in mouse model of chronic constriction injury-induced neuropathic pain assessed as inhibition of pain response at 0.01 mg/kg, po; type: functional
Mus musculus [8] = experiment: Inhibition of capsaicin-induced hypothermia in mouse at 1 mg/kg, po administered 15 mins before capsaicin challenge and measured 30 mins post capsaicin injection; type: functional
Mus musculus [9] = experiment: Anti-allodynic activity in mouse model of chronic constriction injury-induced neuropathic pain assessed as inhibition of pain response at 0.0001 mg/kg, po; type: functional
Mus musculus [10] = experiment: Inhibition of capsaicin-induced hypothermia in mouse administered orally 15 mins before capsaicin challenge and measured 30 mins post capsaicin injection; type: functional, organism-based
Mus musculus [11] = experiment: Anti-allodynic activity in orally dosed mouse model of chronic constriction injury-induced neuropathic pain assessed as inhibition of pain response; type: functional; conditions: po
Mus musculus [12] = experiment: Anti-allodynic activity in mouse model of chronic constriction injury-induced neuropathic pain assessed as inhibition of pain response at 0.1 mg/kg, po; type: functional
[13] = target: T1, Transient receptor potential cation channel subfamily V member 1; experiment: Antagonist activity against human TRPV1 expressed in CHO cells assessed as inhibition of pH-induced channel activation by FLIPR assay; type: cell-based
[14] = target: T1, Transient receptor potential cation channel subfamily V member 1; experiment: Antagonist activity against human TRPV1 expressed in CHO cells assessed as inhibition of 45 degC heat-induced channel activation by FLIPR assay; type: cell-based

T1 sequence (Q8NER1 whole entry): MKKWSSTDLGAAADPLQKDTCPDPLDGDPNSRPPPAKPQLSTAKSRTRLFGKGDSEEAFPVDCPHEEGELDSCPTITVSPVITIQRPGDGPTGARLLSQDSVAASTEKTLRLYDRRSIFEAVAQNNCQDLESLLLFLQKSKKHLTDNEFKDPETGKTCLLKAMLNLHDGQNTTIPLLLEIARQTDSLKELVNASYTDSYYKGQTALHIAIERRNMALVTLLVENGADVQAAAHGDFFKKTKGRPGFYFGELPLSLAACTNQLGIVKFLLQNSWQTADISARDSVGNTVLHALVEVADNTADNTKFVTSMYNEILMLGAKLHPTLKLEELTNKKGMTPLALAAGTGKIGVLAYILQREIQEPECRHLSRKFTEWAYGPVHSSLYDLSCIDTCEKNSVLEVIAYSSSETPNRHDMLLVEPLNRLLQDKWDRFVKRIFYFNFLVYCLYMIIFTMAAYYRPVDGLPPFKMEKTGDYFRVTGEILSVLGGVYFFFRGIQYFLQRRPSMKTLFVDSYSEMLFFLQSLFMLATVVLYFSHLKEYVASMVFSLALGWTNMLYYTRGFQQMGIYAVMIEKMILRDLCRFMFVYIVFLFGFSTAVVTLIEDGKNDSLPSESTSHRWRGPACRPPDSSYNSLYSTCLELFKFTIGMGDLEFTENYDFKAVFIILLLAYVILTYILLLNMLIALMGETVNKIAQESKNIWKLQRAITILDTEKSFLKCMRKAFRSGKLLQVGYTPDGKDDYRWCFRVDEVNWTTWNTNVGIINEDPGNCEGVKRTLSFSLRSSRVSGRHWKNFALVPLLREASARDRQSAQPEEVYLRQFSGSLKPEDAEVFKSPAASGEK

- pKi [1]: 8.85
SMILES: CC(C(=O)NCc1ccc(C(F)(F)F)nc1-c1ccoc1)c1ccc(NS(C)(=O)=O)c(F)c1 (stereo unspecified)

- pKi [1]: 7.44
SMILES: CC(C(=O)NCc1ccc(C(F)(F)F)nc1-n1ccnc1)c1ccc(NS(C)(=O)=O)c(F)c1 (stereo unspecified)

- pKi [1]: 8.24
SMILES: CC(C(=O)NCc1ccc(C(F)(F)F)nc1-c1ccco1)c1ccc(NS(C)(=O)=O)c(F)c1 (stereo unspecified)

- pKi [1]: 6.85
SMILES: CC(C(=O)NCc1ccc(C(F)(F)F)nc1Cc1ccccc1)c1ccc(NS(C)(=O)=O)c(F)c1 (stereo unspecified)

- pKi [1]: 8.70
SMILES: CC(C(=O)NCc1ccc(C(F)(F)F)nc1-c1ccsc1)c1ccc(NS(C)(=O)=O)c(F)c1 (stereo unspecified)

SMILES: CC(C(=O)NCc1ccc(C(F)(F)F)nc1-c1ccc(F)cc1)c1ccc(NS(C)(=O)=O)c(F)c1 (stereo unspecified)
- inhibition in vivo at 0.1 mg/kg (Mus musculus [2]): 25%
- MPE (Mus musculus [3]): 30.5%
- pKi [4]: 9.08
- inhibition in vivo at 0.3 mg/kg (Mus musculus [5]): 38%
- inhibition in vivo at 10 mg/kg (Mus musculus [6]): 91%
- MPE (Mus musculus [7]): 52.9%
- inhibition in vivo at 1 mg/kg (Mus musculus [8]): 60%
- MPE (Mus musculus [9]): 21.9%
- inhibition (Mus musculus [10]): Dose-dependent effect
- ED50 (Mus musculus [11]): 0.01 mg/kg
- MPE (Mus musculus [12]): 47.1%
- pKi [13]: 6.88
- pKi [14]: 7.59

- pKi [1]: 8.66
SMILES: CC(C(=O)NCc1ccc(C(F)(F)F)nc1/C=C/c1ccccc1)c1ccc(NS(C)(=O)=O)c(F)c1 (stereo unspecified)

- pKi [1]: 9.00
SMILES: CC(C(=O)NCc1ccc(C(F)(F)F)nc1-c1cc2ccccc2s1)c1ccc(NS(C)(=O)=O)c(F)c1 (stereo unspecified)

- pKi [1]: 7.24
SMILES: COc1cc(OC)cc(-c2nc(C(F)(F)F)ccc2CNC(=O)C(C)c2ccc(NS(C)(=O)=O)c(F)c2)c1 (stereo unspecified)
